The source of these data is US8809395B2, “Methods for making valerenic acid derivatives and their use” (Valericon GmbH, priority 2009, dated 2014).

In test [1] the target is T1, GABAA channels composed of α1β3 subunits (Rattus norvegicus, UniProt P62813+P63079).
T1 construct: expressed in transfected cells; host or cells: Xenopus laevis oocytes injected with cRNA transcribed from cDNA in pCMV vector
Briefly: Modulation of IGABA, two-microelectrode voltage-clamp on recombinant GABAA receptors expressed in Xenopus laevis oocytes. Type of test: cell-based. Particulars: for EC50 / Hill-Coefficient (nH): GABA EC3-5; for Emax: GABA EC3-5, read-out: Maximum stimulation of IGABA (EC3-5). As for the experimental part:
Preparation of stage V-VI oocytes from Xenopus laevis and synthesis of capped off run-off poly(A^+) cRNA transcripts from linearized cDNA templates (pCMV vector) were performed as described (Khom et al. 2006). Briefly, female Xenopus laevis (NASCO, USA) were anaesthetised by exposing them for 15 minutes to a 0.2% solution of MS-222 (methane sulfonate salt of 3-aminobenzoic acid ethyl ester; Sandoz) before surgically removing parts of the ovaries. Follicle membranes from isolated oocytes were enzymatically digested with 2 mg/ml collagenase (Type 1A, Sigma). One day after isolation, the oocytes were injected with about 10-50 nl of DEPC-treated water (diethyl pyrocarbonate, Sigma, Germany) containing the different cRNAs at a concentration of approximately 300-3000 pg/nl/subunit. The amount of cRNA was determined by means of a Nanoprop ND-1000 (Kisker-biotech, Steinfurt, Germany).
cRNAs were mixed in a ratio of 1:1 for the expression of α1β3 receptors. Oocytes were stored at 18° C. in ND96 solution (Methfessel et al., 1986). Electrophysiological experiments were done using the two-microelectrode voltage-clamp method at a holding potential of −70 mV making use of a TURBO TEC 01C amplifier (npi electronic, Tamm, Germany) and an Axon Digidata 1322A interface (Molecular Devices, Sunnyvale, Calif.). Data acquisition was carried out using pCLAMP v.9.2. The bath solution contained 90 mM NaCl, 1 mM KCl, 1 mM MgCl2.6H2O, 1 mM CaCl2 and 5 mM HEPES (pH 7.4). Microelectrodes were filled with 2M KCl and had resistances between 1 and 3 MΩ (Khom et al., 2007).
GABA and valerenic acid derivatives, respectively, were applied by means of fast perfusion system (see Baburin et al. 2006 for details; Khom et al. 2006). Drug or control solutions were applied by means of a TECAN Miniprep 60 permitting automation of the experiments. To elicit IGABA the chamber was perfused with 120 μl of GABA-containing solution at a rate of between 300 and 1000 μl/s. The IGABA rise time was in the range of between 100 and 250 ms (see Khom et al. 2006). Care was taken to account for possible slow recovery from increasing levels of desensitization in the presence of high GABA, valerenic acid and derivatives concentrations. Oocytes with maximal current amplitudes >3 μA were discarded to exclude voltage-clamp errors (Khom et al., 2006; Baburin et al., 2006; Khom et al., 2007).
Stimulation of chloride currents by modulators of the GABAA receptor was measured at a GABA concentration eliciting between 3% and 5% of the maximal current amplitude (EC3-5). The EC3-5 was determined at the beginning of each experiment. Enhancement of the chloride current was defined as (I(GABA+Comp)/IGABA)−1, where I(GABA+Comp) is the current response in the presence of a given compound (valerenic acid or derivative) and IGABA is the control GABA current. To measure the sensitivity of the GABAA receptor for a given compound, the compound was applied for an equilibration period of 1 minute before applying GABA (EC3-5). Concentration-response curves were generated and the data were fitted by non-linear regression analysis using Origin software (OriginLab Corporation, USA). Data were fitted to the equation:
[formula] where nH is the Hill coefficient. Each data point represents the mean±S.E. from at least 4 oocytes and 2 oocyte batches. Statistical significance was calculated using the paired Student t-test with a confidence interval of p<0.05 (Khom et al., 2007). 4.2.2. Modulation of IGABA by VA Derivatives
Furthermore, the modulation of IGABA by VA derivatives was investigated at a GABA EC3-5 concentration in a system as outlined under 4.2.1, i.e. on recombinant GABAA receptors expressed in Xenopus laevis oocytes. Thus, modulation of IGABA by VA derivatives was studied on GABAA channels composed of α1β3 subunits.

The next test concerns c57B1/6N mice. In words: Seizure threshold by pentylenetetrazole (PTZ) tail-vein infusion. Type of test: in vivo. To be noted: for seizure threshold: intraperitoneally, 30 min prior to test. The protocol: Seizure threshold was determined by pentylenetetrazole (PTZ) tail-vein infusion at a rate of 100 μl/min ([…] PTZ in saline, pH 7.4) on freely moving animals. 30 min prior to test c57B1/6N mice were intraperitoneally injected with either saline (=control group), VA or VA derivatives at the indicated concentrations. […] Animals were immediately anaesthetized using increasing carbon dioxide concentrations and killed by cervical displacement. The seizure threshold dose was calculated from the infused volume in relation to body weight. Results from tail-vein infusion were verified by intraperitoneal injection of a fixed dose of 30 mg PTZ/kg body weight. Animals were observed and video-tracked for 20 min after treatment.

The next test has as its system mice (C57B1/6N). In words: Mouse Elevated Plus Maze (EPM) test. Type of test: in vivo. To be noted: 3 mg/kg BW, injected 30 min prior to testing, assessed over 5 minutes. The protocol: Male mice (C57B1/6N) were obtained from Charles River Laboratories (Germany). For breeding and maintenance mice were housed in groups with free access to food and water.
Temperature was fixed to 23±1C and 60% humidity with a 12 h light-dark cycle (lights on 0700-1900 hours). Age and testing experience matched male mice at 3-8 months for all experiments. All procedures involving animals were approved by the Austrian Animal Experimentation Ethics Board in compliance with the European convention for the protection of vertebrate animals used for experimental and other scientific purposes ETS no.: 123.
Mice were transferred to the testing facility 24 h before commencement of experiments. Tests were performed between 0900 and 1300 hours. All tests were video monitored and evaluated by an experimenter blinded to the administered compound. […]
Behaviour was tested over 5 minutes on an elevated plus maze (1 meter above ground) consisting of two closed and two open arms, each 50 cm×5 cm in size. […] Analysis of open and closed arm entries and time on open arm was automatically recorded using Video-Mot 2 equipment and software (Wittmann et al., 2008). […]

T1 sequence (P62813 28-455): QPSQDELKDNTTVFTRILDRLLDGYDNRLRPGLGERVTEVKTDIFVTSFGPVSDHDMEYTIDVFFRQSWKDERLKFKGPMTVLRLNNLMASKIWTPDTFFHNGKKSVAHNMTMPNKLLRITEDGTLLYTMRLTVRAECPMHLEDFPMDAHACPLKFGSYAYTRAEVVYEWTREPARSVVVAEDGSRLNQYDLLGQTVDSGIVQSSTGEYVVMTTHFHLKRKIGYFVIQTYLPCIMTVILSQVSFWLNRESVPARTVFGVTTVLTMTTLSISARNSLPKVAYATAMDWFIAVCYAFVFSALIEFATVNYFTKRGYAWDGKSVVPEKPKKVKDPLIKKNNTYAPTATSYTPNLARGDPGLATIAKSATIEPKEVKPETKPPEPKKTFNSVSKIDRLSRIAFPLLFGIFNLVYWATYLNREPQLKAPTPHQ
T1 sequence (P63079 26-473): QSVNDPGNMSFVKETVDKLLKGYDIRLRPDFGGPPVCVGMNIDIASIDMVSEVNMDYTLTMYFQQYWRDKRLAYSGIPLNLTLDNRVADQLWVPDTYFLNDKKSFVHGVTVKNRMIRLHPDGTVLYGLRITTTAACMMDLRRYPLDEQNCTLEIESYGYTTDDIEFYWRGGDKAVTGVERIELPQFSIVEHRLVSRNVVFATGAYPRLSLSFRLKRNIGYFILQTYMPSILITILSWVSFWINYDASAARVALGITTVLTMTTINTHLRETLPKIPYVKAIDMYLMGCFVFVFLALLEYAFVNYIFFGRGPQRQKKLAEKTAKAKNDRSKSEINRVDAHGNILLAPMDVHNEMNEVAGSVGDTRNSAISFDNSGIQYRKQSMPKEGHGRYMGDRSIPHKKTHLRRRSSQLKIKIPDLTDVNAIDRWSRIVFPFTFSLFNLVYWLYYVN

As to `CNC(=O)/C(C)=C/[C@@H]1CC[C@@H](C)[C@H]2CCC(C)=C12` [VA-MA, (E)-3-((4S,7R,7aR)-3,7-dimethyl-2,4,5,6,7,7a-hexahydro-1H-inden-4-yl)-N,2-dimethylacrylamide], in test [1], the EC50 came out at 26.3 ± 6.6 µM and the “Hill-Coefficient (nH)” value is 1.4 ± 0.1. Further, in the test with c57B1/6N mice (30 mg/kg bodyweight), the “anticonvulsant effect compared among tested substances” value is “strongest anticonvulsant effect” and the “anticonvulsant effects (in words)” value was “significantly increased”.
For the molecule `CCN(CC)C(=O)/C(C)=C/[C@@H]1CC[C@@H](C)[C@H]2CCC(C)=C12` [VA-DEA, (E)-3-((4S,7R,7aR)-3,7-dimethyl-2,4,5,6,7,7a-hexahydro-1H-inden-4-yl)-N,N-diethyl-2-methylacrylamide], in test [1], the EC50 was found to be 23.7 ± 6.3 µM, the “Hill-Coefficient (nH)” value was 1.4 ± 0.1 and the Emax came to 901 ± 120%. Moreover, in the test with c57B1/6N mice (30 mg/kg bodyweight), the “anticonvulsant effects (in words)” value is given as “significantly increased”.
As for `CCCCNC(=O)/C(C)=C/[C@@H]1CC[C@@H](C)[C@H]2CCC(C)=C12` [VA-BA, (E)-N-butyl-3-((4S,7R,7aR)-3,7-dimethyl-2,4,5,6,7,7a-hexahydro-1H-inden-4-yl)-2-methylacrylamide], in test [1], the EC50 stood at 18.8 ± 6.9 µM, the “Hill-Coefficient (nH)” value is given as 1.1 ± 0.2 and the Emax came out at 569 ± 57%.
Taken in the same sequence, the figures for `CC1=C2[C@H](/C=C(\C)C(=O)NC(C)C)CC[C@@H](C)[C@H]2CC1` [VA-IPA, (E)-3-((4S,7R,7aR)-3,7-dimethyl-2,4,5,6,7,7a-hexahydro-1H-inden-4-yl)-N-isopropyl-2-methylacrylamide] were 22.5 ± 6 µM, 1.5 ± 0.3 and 506 ± 76%.
As to `CC1=C2[C@H](/C=C(\C)C(=O)N(C)C)CC[C@@H](C)[C@H]2CC1` [VA-DMA, (E)-3-((4S,7R,7aR)-3,7-dimethyl-2,4,5,6,7,7a-hexahydro-1H-inden-4-yl)-N,N,2-trimethylacrylamide], in test [1], the EC50 is 28.4 ± 7.1 µM and the “Hill-Coefficient (nH)” value was 2.1 ± 0.5.
The like results for `CC1=C2[C@H](/C=C(\C)C(=O)N3CCCCC3)CC[C@@H](C)[C@H]2CC1` [VA-PIP, (E)-3-((4S,7R,7aR)-3,7-dimethyl-2,4,5,6,7,7a-hexahydro-1H-inden-4-yl)-2-methyl-1-(piperidin-1-yl)prop-2-en-1-one] were, in that order, 54.6 ± 17 µM and 1.6 ± 0.3.
Consider `CC1=C2[C@H](/C=C(\C)C(N)=O)CC[C@@H](C)[C@H]2CC1` [VA-A, (E)-3-((4S,7R,7aR)-3,7-dimethyl-2,4,5,6,7,7a-hexahydro-1H-inden-4-yl)-2-methylacrylamide], for which, in test [1], the concentration for a half-maximal effect (EC50) is 13.7 ± 2.3 µM and the “Hill-Coefficient (nH)” value was 1.6 ± 0.2. In the test with c57B1/6N mice (3 mg/kg bodyweight), the “anticonvulsant effect compared among tested substances” value is given as “most pronounced” and the seizure threshold is on record as 58.6±3.7 mg PTZ/kg. In addition, the “time spent in the open arms of the EPM, % of total time in the test” value in the test with mice (C57B1/6N) stood at 52.1±3.9%.
In the test on c57B1/6N mice (3 mg/kg bodyweight), `CC1=C2[C@H](/C=C(\C)C(=O)O)CC[C@@H](C)[C@H]2CC1` [VA, (E)-3-[(4S,7R,7aR)-3,7-dimethyl-2,4,5,6,7,7a-hexahydro-1H-inden-4-yl]-2-methylprop-2-enoic acid, reference compound] had a seizure threshold of 47.7±2.7 mg PTZ/kg. Further, the “seizure threshold (in words)” value in the test with c57B1/6N mice (concentrations ≧3 mg/kg bodyweight, vs. saline) is listed as “significantly increased”.
Turning to `CCNC(=O)/C(C)=C/[C@@H]1CC[C@@H](C)[C@H]2CCC(C)=C12` [VA-EA], in test [1], the concentration giving a half-maximal response (EC50) is 23.4 ± 6.9 µM and the “Hill-Coefficient (nH)” value was determined as 1.3 ± 0.3. In addition, the “anticonvulsant effects (in words)” value in the test on c57B1/6N mice (30 mg/kg bodyweight) is “significantly increased”.
Regarding `CC1=C2[C@H](/C=C(\C)C(=O)N3CCOCC3)CC[C@@H](C)[C@H]2CC1` [VA-MO, (E)-3-((4S,7R,7aR)-3,7-dimethyl-2,4,5,6,7,7a-hexahydro-1H-inden-4-yl)-2-methyl-1-morpholinoprop-2-en-1-one], in test [1], the EC50 is 64.2 ± 13.8 µM and the “Hill-Coefficient (nH)” value was 1.6 ± 0.2.

What is called EC50 is the concentration needed to bring the measured effect to its halfway point.
